# Measured values: publication PMC12662691, “DDX3X Promotes Rotavirus Infection and Serves as an Antiviral Target” (Transboundary and Emerging Diseases, 2025)
# Assays:
# MYAS33 RV strain [1] = assay: EC50 determination of anti-RV activity by RT-qPCR, MYAS33 strain; type: cell-based; conditions: Rotavirus, 0.1 MOI, 24 h, read-out: EC50 against RV infection
# Protocol: (§1) Cells were seeded into 96-well plates, allowed to adhere, followed by drug inoculation in a concentration gradient along with RV infection at 0.1 MOI. After 24 h, cells were collected, total RNA was extracted, reverse transcription was performed, and RV was detected by RT-qPCR. The EC50 of the drug was calculated.
# MYAS33 RV strain [2] = assay: Antiviral efficacy screen, western blot of viral proteins; type: cell-based, Rotavirus; conditions: range of drug concentrations
# Protocol: (a) Drugs were selected by gene dependent and network dependent strategy based on VP4 interacting proteins. (b) Cells were treated with a range of drug concentrations, and then, infected with MYAS33 RV strain. Subsequently, the cells were collected and subjected to western blot analysis to detect viral proteins.
# Cells were collected, washed with PBS, and digested with trypsin. The cells were then collected in PBS into centrifuge tubes. After centrifugation, the supernatant was discarded. The cells was lysed, and the resulting lysate was transferred to a new centrifuge tube. 5 × SDS-PAGE sample buffer was added, and the samples were boiled in a water bath. Subsequently, SDS-PAGE was performed, and the proteins were transferred onto nitrocellulose membranes. The membranes were blocked with 5% skim milk at room temperature, washed three times with TBST, and incubated overnight at 4°C with primary antibodies. After washing three times with TBST, corresponding secondary antibodies were added and incubated for 1 h at room temperature. Following three additional washes with TBST, ECL reagent was prepared and applied to the membrane. Finally, the membrane was exposed in a chemiluminescence imaging system.
# MSLH14 RV strain [3] = assay: EC50 determination of anti-RV activity by RT-qPCR, MSLH14 strain; type: cell-based, Rotavirus
# Protocol: as §1
# SA11 RV strain = assay: EC50 determination of anti-RV activity by RT-qPCR, SA11 strain; type: cell-based, Rotavirus
# Protocol: as §1
# MYAS33 RV strain [4] = assay: RK-33 time course of RV infection, RT-qPCR; type: cell-based, Rotavirus
# Protocol: (§2) Figure 7 RK-33 inhibits RV infection. (a, b) Cells were incubated with 10 μM RK-33 and infected with MYAS33 RV strain. The viral detection was conducted at 3, 6, 12, and 24 hpi by RT-qPCR detection, and at 12 and 24 hpi by TCID50. (c, d) EC50 of RK-33 against MSLH14 and SA11 strains was measured. (e) Flowchart of in vivo drug experiment. (f) Weight gain rate of mice. (g) Intestinal virus titer detection in mice. (h) H&E staining of intestine. (i–l) Cytokine detection of spleen. Statistical significance is determined by Student's test (^∗p < 0.05; ^∗∗p < 0.01; ^∗∗∗p < 0.001; ^∗∗∗∗p < 0.0001). HD, high dose; LD, low dose; ns, not significant. […] The name RK-33 is printed only in the plot legends of panels a and b.
# Total RNA was extracted from collected samples using TRIzol reagent (Sangon Biotech) and subsequently reverse transcribed into cDNA using a premix reverse transcriptase (Vazyme). For qPCR analysis, a SYBR Green qPCR Mix kit (Promega) was utilized in combination with a CFX96 system. All procedures were carried out following the manufacturers' guidelines as described previously.
# MYAS33 RV strain [5] = assay: RK-33 viral titer by TCID50; type: cell-based, Rotavirus
# Protocol: as §2
# MSLH14 RV strain [6] = assay: In vivo drug experiment in RV-challenged neonatal mice; conditions: neonatal Kunming mice
# Protocol: Pregnant Kunming mice were individually housed and bred until delivery. Neonatal mice were raised for 1 week. Mice were inoculated with 10^4 TCID50 units of the MSLH14 RV strain via gavage. Drug administration was performed with 0.005 mg/g (low dose group) or 0.01 mg/g (high dose group). The drugs were dissolved in a solvent formulated as follows: 10% DMSO, 40% PEG300, 5% Tween-80, and 45% normal saline. Viral titers in the small intestine were determined using the TCID50 method. Spleens were collected for total RNA extraction, followed by reverse transcription and cytokine detection. For histopathological examination, tissues were fixed with 4% paraformaldehyde, paraffin embedded, sectioned into slices, and stained with hematoxylin and eosin following standard protocols as previously described.
# [7] = MSLH14, spleen, RT-qPCR, vs untreated controls
compound,measurement,setting,value
Cc1[nH]c2ccccc2c1CCNC(=O)c1cccs1 [CK-636],EC50,MYAS33 RV strain [1],5.3 µM
same,Inhibitory effect against RV infection (antiviral efficacy screen),MYAS33 RV strain [2],exhibited inhibitory effects
Cc1[nH]c2ccccc2c1CCNC(=O)c1ccccc1F [CK-666],EC50,MYAS33 RV strain [1],2.85 µM
same,Inhibitory effect against RV infection (antiviral efficacy screen),MYAS33 RV strain [2],exhibited inhibitory effects
Clc1cccc(N2CCN(c3cnnc4c(Cl)cccc34)CC2)c1 [FiVe 1],EC50,MYAS33 RV strain [1],3.99 µM
same,Inhibitory effect against RV infection (antiviral efficacy screen),MYAS33 RV strain [2],exhibited inhibitory effects
COc1ccc(Cn2c3ncnc4c(ncn4Cc4ccc(OC)cc4)c-3nc2=O)cc1 [RK-33],EC50,MYAS33 RV strain [1],1.05 µM
same,Inhibition of MSLH14 infection,MSLH14 RV strain [3],also inhibits SA11 and MSLH14 infections
same,EC50,"MSLH14 RV strain [3]; Rotavirus, 0.1 MOI, 24 h, RT-qPCR, read-out: EC50 against MSLH14",0.91 µM
same,Inhibition of SA11 infection,SA11 RV strain,also inhibits SA11 and MSLH14 infections
same,EC50,"SA11 RV strain; Rotavirus, 0.1 MOI, 24 h, RT-qPCR, read-out: EC50 against SA11",0.86 µM
same,Inhibitory effect against RV infection (antiviral efficacy screen),MYAS33 RV strain [2],exhibited inhibitory effects
same,Inhibitory effect on RV (RT-qPCR),"MYAS33 RV strain [4]; 10 μM RK-33, MYAS33, 3 hpi",no significant inhibitory effect
same,Inhibitory effect on RV (RT-qPCR),"MYAS33 RV strain [4]; 10 μM RK-33, MYAS33, 6 hpi",pronounced antiviral activity
same,Inhibitory effect on RV (RT-qPCR),"MYAS33 RV strain [4]; 10 μM RK-33, MYAS33, 12 hpi",pronounced antiviral activity
same,Inhibitory effect on RV (RT-qPCR),"MYAS33 RV strain [4]; 10 μM RK-33, MYAS33, 24 hpi",pronounced antiviral activity
same,Viral titer (TCID50),"MYAS33 RV strain [5]; 10 μM RK-33, MYAS33, 12 h",inhibited MYAS33 strain infection
same,Viral titer (TCID50),"MYAS33 RV strain [5]; 10 μM RK-33, MYAS33, 24 h",inhibited MYAS33 strain infection
same,Intestinal lesions (H&E histopathology),"MSLH14 RV strain [6]; MSLH14, 5 days postinfection",alleviated intestinal lesions
same,Spleen IFNG level,MSLH14 RV strain [6]; [7],significantly reduced levels
same,Spleen IL-1B level,MSLH14 RV strain [6]; [7],significantly reduced levels
same,Spleen IL-6 level,MSLH14 RV strain [6]; [7],significantly reduced levels
same,Spleen TNFA level,MSLH14 RV strain [6]; [7],significantly reduced levels
same,Recovery of body weight (weight gain rate),"MSLH14 RV strain [6]; MSLH14 by gavage, 0.005 mg/g (low dose) or 0.01 mg/g (high dose), vs untreated controls",faster recovery of body weight
same,Intestinal viral titer (TCID50),"MSLH14 RV strain [6]; MSLH14 by gavage, 0.005 or 0.01 mg/g, small intestine, vs untreated controls",significantly reduced
CC(COc1ccccc1Cc1ccccc1)N1CCCCC1 (centres unmarked) [benproperine phosphate],EC50,MYAS33 RV strain [1],4.69 µM
same,Inhibitory effect against RV infection (antiviral efficacy screen),MYAS33 RV strain [2],exhibited inhibitory effects
COCCCC/C(=N\OCCN)c1ccc(C(F)(F)F)cc1 [fluvoxamine],EC50,MYAS33 RV strain [1],14.8 µM
same,Inhibitory effect against RV infection (antiviral efficacy screen),MYAS33 RV strain [2],exhibited inhibitory effects
